What was measured:
[1] = tested on: adult houseflies (Musca domestica); assay: Musca domestica test (MUSCDO); format: in vivo; details: application rate 100 ppm; after 2 days
How it was run: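 Compound dissolved in DMSO and diluted with water to the test concentration, applied with sugar solution on a sponge; 10 adult houseflies per vessel. Mortality scored after 2 days as % kill (100% all dead, 0% none).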

[2] = tested on: L1 larvae of the Australian sheep blowfly (Lucilia cuprina); assay: Lucilia cuprina test (LUCICU); format: in vivo; details: application rate 100 ppm; after 2 days
How it was run: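 About 20 L1 larvae placed in a vessel with minced horsemeat plus compound (DMSO concentrate diluted with water to the desired concentration). Kill in % scored after 2 days, 100% meaning all larvae dead.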

[3] = tested on: adult cat fleas (Ctenocephalides felis); assay: Ctenocephalides felis in vitro contact test with adult cat fleas (T1); details: after 48 h
How it was run: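 Test compound was dissolved in acetone p.a. (9 mg per 1 ml) and diluted as needed. 250 μl was spread evenly over the inner walls and floor of a 25 ml test tube by rotating on an orbital shaker for 2 h at 30 rpm. Once the solvent evaporated, 5-10 adult Ctenocephalides felis were added. Tubes were capped with a perforated plastic lid and kept horizontal at room temperature and ambient humidity.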

[4] = tested on: adult cat fleas (Ctenocephalides felis); assay: Ctenocephalides felis oral test (CTECFE); format: in vivo; details: application rate 100 ppm in citrated cattle blood; after 2 days
How it was run: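 About 20 unfed adult cat fleas fed through parafilm membrane on citrated cattle blood containing compound (DMSO stock diluted in blood to test concentration). Kill % scored after 2 days (100% = all fleas dead).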

[5] = tested on: larvae of the mustard beetle (Phaedon cochleariae); assay: Phaedon cochleariae spray test (PHAECO); format: in vivo; details: Chinese cabbage leaf discs, after 7 days
How it was run: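 Compound dissolved in acetone/dimethylformamide with alkylaryl polyglycol ether emulsifier, made up in water containing 1000 ppm emulsifier, then diluted to test concentrations and sprayed against mustard beetle larvae. Efficacy (% larvae killed) scored after 7 days.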

[6] = tested on: green peach aphid (Myzus persicae); assay: Myzus persicae spray test (MYZUPE); format: in vivo; details: Chinese cabbage leaf discs, after 6 days
Description: G. Myzus persicae-spray Test (MYZUPE)
Solvents: 78 parts by weight of acetone
• 1.5 parts by weight of dimethylformamide Emulsifier: alkylaryl polyglycol ether
To produce a suitable preparation of active compound, 1 part by weight of active compound is dissolved using the stated parts by weight of solvent and made up with water comprising an emulsifier concentration of 1000 ppm until the desired concentration is reached. To produce further test concentrations, the preparation is diluted with emulsifier-containing water.
Discs of Chinese cabbage leaves (Brassica pekinensis) infested by all stages of the green peach aphid (Myzus persicae) are sprayed with an active compound preparation of the desired concentration.
After 6 days, the efficacy in % is determined 100% here means that all of the aphids have been killed; 0% means that no aphids have been killed.

[7] = tested on: engorged adult female cattle ticks (Boophilus microplus); assay: Boophilus microplus injection test (BOOPMI Inj); format: in vivo; details: application rate 20 μg/animal; injection into abdomen; assessed after 7 days
How it was run: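 DMSO solution of compound (1 μl) injected into the abdomen of 5 engorged adult female ticks, which are then held in a climate-controlled room. After 7 days, efficacy is scored from laying of fertile eggs, with unclear eggs kept until larval hatch (~42 days); 100% means no fertile eggs, 0% all fertile.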

[8] = tested on: adult dog ticks (Rhipicephalus sanguineus); assay: Rhipicephalus sanguineus in vitro contact test with adult brown dog ticks (T2); details: after 48 h
How it was run: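 Acetone solutions coated onto test tube walls and floor, giving 5 μg/cm^2 at 900 ppm. Five to ten adult ticks held per tube in the dark at room temperature for 48 h, then heated at 45-50° C for up to 5 min; efficacy is the percentage of dead or moribund ticks unable to climb away.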

[9] = tested on: caterpillars of the armyworm (Spodoptera frugiperda); assay: Spodoptera frugiperda spray test (SPODFR); format: in vivo; details: maize leaf discs, after 7 days
How it was run: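 Maize leaf discs sprayed with compound in acetone/DMF with alkylaryl polyglycol ether emulsifier (1000 ppm) in water, dried, then infested with armyworm caterpillars. Mortality (%) scored after 7 days; 100% = all caterpillars killed, 0% = none killed.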

[10] = tested on: cattle ticks (Boophilus microplus) Parkhurst strain, SP-resistant; assay: Boophilus microplus dip test (BOOPMI Dip); format: in vivo; details: application rate 100 ppm, assessed after 7 days
Description: B. Boophilus microplus-dip Test (BOOPMI Dip)
Test animals: cattle ticks (Boophilus microplus) Parkhurst strain, SP-resistant
Solvent: dimethyl sulphoxide
10 mg of active compound are dissolved in 0.5 ml of dimethyl sulphoxide. For the purpose of preparing a suitable formulation, the active compound solution is diluted with water to the concentration desired in each case.
This active compound preparation is pipetted into tubes. 8-10 adult engorged female cattle ticks (Boophilus microplus) are transferred into a further tube with holes. The tube is immersed into the active compound formulation, and all ticks are completely wetted. After the liquid has run out, the ticks are transferred on filter discs into plastic dishes and stored in a climate-controlled room.
The activity is assessed after 7 days by laying of fertile eggs. Eggs whose fertility is not visible from the outside are stored in a climate-controlled cabinet until the larvae hatch after about 42 days. An efficacy of 100% means that none of the ticks has laid any fertile eggs; 0% means that all eggs are fertile.

[11] = tested on: greenhouse red spider mite (Tetranychus urticae); assay: Tetranychus urticae spray test, OP-resistant (TETRUR); format: in vivo; details: bean leaf discs, after 6 days
How it was run: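 Bean leaf discs carrying all stages of OP-resistant Tetranychus urticae were sprayed with compound formulated in acetone/dimethylformamide and diluted in water with 1000 ppm alkylaryl polyglycol ether emulsifier. Mortality (% efficacy, 100% = all mites killed) scored after 6 days.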

[12] = logP determination by HPLC on a reversed-phase column (C18), EEC Directive 79/831 Annex V.A8; format: physicochemical; details: HPLC on reversed-phase column (C18), acetonitrile/water with formic acid, EEC Directive 79/831 Annex V.A8
How it was run: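 Retention on a C18 reversed-phase column (Zorbax Eclipse Plus, 1.8 micron) was used, eluting with acetonitrile/water, each containing formic acid. The gradient ran from 10% to 95% acetonitrile over 4.25 min, then held 1.25 min, at 55° C and 2.0 ml/min, with MS detection.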

Compound | efficacy (kill in %) [1] | efficacy (kill in %) [2] | efficacy (dead or moribund fleas) ([3]; application rate 1 μg/cm^2) | efficacy (dead or moribund fleas) ([3]; application rate 5 μg/cm^2) | efficacy (kill in %) [4] | efficacy in % ([5]; application rate 500 g/ha) | efficacy in % ([6]; application rate 500 g/ha) | efficacy (laying of fertile eggs) [7] | efficacy (dead or moribund ticks) ([8]; application rate 1 μg/cm^2) | efficacy (dead or moribund ticks) ([8]; application rate 5 μg/cm^2) | efficacy in % ([9]; application rate 500 g/ha) | efficacy (laying of fertile eggs) [10] | efficacy in % ([11]; application rate 500 g/ha) | logP [12] | efficacy in % ([5]; application rate 100 g/ha) | efficacy in % ([11]; application rate 100 g/ha) | efficacy in % ([6]; application rate 100 g/ha) | efficacy in % ([9]; application rate 100 g/ha)
Cn1nc(C(F)(F)C(F)(F)F)c(C(F)(F)F)c1-n1cc(-c2cncc(C(=O)NC3CC3)c2)cn1 [Ic-70] | 100% | 100% | 100% | 100% | 100% | 100% | 90% | 100% | 100% | 100% | 100% | – | – | – | – | – | – | –
Cc1nnc(NC(=O)c2cc(-c3cnn(-c4c(C(F)(F)F)c(C(F)(F)C(F)(F)F)nn4C)c3)ccc2Cl)o1 [Ic-158] | 90% | 100% | 100% | 100% | 100% | – | – | 100% | – | – | – | 100% | – | – | – | – | – | –
Cn1nccc1NC(=O)c1cc(-c2cnn(-c3c(C(F)(F)F)c(C(F)(F)C(F)(F)F)nn3C)c2)ccc1Cl [Ic-163] | 90% | 100% | 100% | 100% | 100% | 100% | 90% | 100% | 100% | – | 100% | – | 100% | – | – | – | – | –
Cn1nc(C(F)(F)C(F)(F)F)c(C(F)(F)F)c1-n1cc(-c2cncc(C(=O)NC3(C#N)CC3)c2)cn1 [Ic-71] | 80% | 100% | 100% | 100% | 100% | 100% | 100% | 100% | 80% | 100% | 100% | – | 100% | – | – | – | – | –
Cn1nc(C(F)(F)C(F)(F)F)c(C(F)(F)F)c1-n1cc(-c2cc(C(=O)NC3CC3)ccc2F)cn1 [Ic-41] | 100% | 100% | 100% | 100% | 100% | 100% | 100% | 100% | – | – | 100% | – | 100% | – | – | – | – | –
Cc1ccc(-c2cnn(-c3c(C(F)(F)F)c(C(F)(F)C(F)(F)F)nn3C)c2)cc1C(=O)NC1CC1 [Ic-130] | – | – | – | – | – | – | – | – | – | – | – | 100% | – | 3.76 | 100% | – | – | –
Cn1nc(C(F)(F)C(F)(F)F)c(C(F)(F)F)c1-n1cc(-c2ccc(Cl)c(C(=O)NC3CSC3)c2)cn1 [Ic-28] | 100% | 100% | 100% | 100% | 100% | – | – | 100% | – | 100% | – | – | – | 4.09 | 100% | 100% | 90% | 100%
CSCCNC(=O)c1cc(-c2cnn(-c3c(C(F)(F)F)c(C(F)(F)C(F)(F)F)nn3C)c2)ccc1Cl [Ic-167] | – | – | 100% | 100% | – | 100% | 90% | – | 100% | 100% | 100% | – | 100% | – | – | – | – | –
Cn1nc(C(F)(F)C(F)(F)F)c(C(F)(F)F)c1-n1cc(-c2cc(F)c(F)c(C(=O)NC3CC3)c2)cn1 [Ic-55] | 100% | 100% | – | – | 100% | 100% | 100% | 100% | – | – | 100% | – | 80% | – | – | – | – | –
CSC1CC(NC(=O)c2cc(-c3cnn(-c4c(C(F)(F)F)c(C(F)(F)C(F)(F)F)nn4C)c3)ccc2Cl)C1 (centres unmarked) [Ic-108] | – | – | 100% | 100% | – | – | – | – | – | 80% | – | – | – | 4.28 | 100% | 100% | 90% | 83%
Cn1nc(C(F)(F)C(F)(F)F)c(C(F)(F)F)c1-n1cc(-c2cccc(C(=O)NC3(C#N)CC3)c2F)cn1 [Ic-40] | 100% | 100% | – | – | 100% | 100% | 100% | 100% | – | – | 100% | – | 100% | – | – | – | – | –
